Read-outs that look alike come from different tables or passages of the source.
Biological target: human recombinant P2X7 receptor (Homo sapiens (Human), UniProt Q99572)
Assay: YO-PRO assay: P2X7 receptor antagonistic activity (ATP-induced YO-PRO-1 uptake, FLIPR)
[1] = read-out: IC50 [nM], antagonistic activities with respect to the P2X7 receptor, HEK-293 cells expressing human recombinant P2X7 receptor, YO-PRO-1 fluorescence, ATP 250 μM, 90 minutes, highest concentration 10 μM

human recombinant P2X7 receptor, sequence (Q99572 whole entry): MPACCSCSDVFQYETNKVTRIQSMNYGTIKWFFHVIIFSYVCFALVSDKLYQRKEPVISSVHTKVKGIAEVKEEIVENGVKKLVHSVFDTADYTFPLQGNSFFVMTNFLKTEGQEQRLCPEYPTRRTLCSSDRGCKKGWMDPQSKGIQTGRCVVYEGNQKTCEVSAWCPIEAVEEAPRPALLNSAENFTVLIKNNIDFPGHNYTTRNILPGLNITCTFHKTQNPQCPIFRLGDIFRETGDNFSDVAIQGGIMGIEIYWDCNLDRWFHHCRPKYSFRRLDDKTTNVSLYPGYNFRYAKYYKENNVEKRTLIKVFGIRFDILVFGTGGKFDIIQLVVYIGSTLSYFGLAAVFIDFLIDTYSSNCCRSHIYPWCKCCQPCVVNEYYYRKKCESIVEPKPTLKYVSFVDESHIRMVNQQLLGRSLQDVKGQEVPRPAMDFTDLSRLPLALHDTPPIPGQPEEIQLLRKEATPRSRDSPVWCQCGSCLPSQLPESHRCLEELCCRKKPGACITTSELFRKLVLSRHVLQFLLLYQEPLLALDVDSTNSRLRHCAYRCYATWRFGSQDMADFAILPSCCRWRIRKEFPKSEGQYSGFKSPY

Question: O=C(NCc1c(Cl)cc(Cl)cc1C(F)(F)F)C1COc2ncccc21 (racemic) [Example 68, rac-2,3-Dihydro-furo[2,3-b]pyridine-3-carboxylic acid 2,4-dichloro-6-trifluoromethyl-benzylamide] was tested. Which IC50 did it give?
Answer: The IC50 was 13.8 nM.

Question: COCc1cc(Cl)cc(Cl)c1CNC(=O)C1COc2ncccc21 (racemic) [Example 72, rac-2,3-Dihydro-furo[2,3-b]pyridine-3-carboxylic acid 2,4-dichloro-6-methoxymethyl-benzylamide] was tested. Which IC50 did it give?
Answer: Its IC50 is 14.6 nM.

Question: How did the IC50 turn out when O=C1CC(NC(=O)C2COc3ncccc32)c2ccccc21 (racemic) [Example 88, rac-2,3-Dihydro-furo[2,3-b]pyridine-3-carboxylic acid (3-oxo-indan-1-yl)-amide] was run?
Answer: Its IC50 is 1450 nM.

Question: For O=C1CC(NC(=O)C2COc3ncccc32)c2ccccc21 (racemic) [Example 89, rac-2,3-Dihydro-furo[2,3-b]pyridine-3-carboxylic acid (3-oxo-indan-1-yl)-amide], which IC50 is on record?
Answer: Its IC50 is 2510 nM.

Question: With O=C(NCc1c(Cl)cc(Cl)cc1COCCO)C1COc2ncccc21 (racemic) [Example 93, rac-2,3-Dihydro-furo[2,3-b]pyridine-3-carboxylic acid 2,4-dichloro-6-(2-hydroxy-ethoxymethyl)-benzylamide] as the compound, how does the IC50 read?
Answer: Its IC50 is 11.4 nM.

Question: For [2H]C([2H])([2H])c1cc(Cl)cc(Cl)c1CNC(=O)C1COc2ncccc21 (racemic) [Example 96, rac-2,3-Dihydro-furo[2,3-b]pyridine-3-carboxylic acid 2,4-dichloro-6-trideuteromethyl-benzylamide], which IC50 is on record?
Answer: Its IC50 is 2.7 nM.

Question: With O=C(NCc1ccc(C(F)(F)F)cc1Cl)C1COc2ncccc21 (racemic) [Example 103, rac-2,3-Dihydro-furo[2,3-b]pyridine-3-carboxylic acid 2-chloro-4-trifluoromethyl-benzylamide] as the compound, how does the IC50 read?
Answer: Its IC50 is 80.4 nM.

Question: O=C(NCCCc1ccc(Cl)cc1Cl)C1COc2ncccc21 (racemic) [Example 106, rac-2,3-Dihydro-furo[2,3-b]pyridine-3-carboxylic acid [3-(2,4-dichloro-phenyl)-propyl]-amide] was tested. Which IC50 did it give?
Answer: The IC50 was 346 nM.

Question: How did the IC50 turn out when O=C(NCc1c(Cl)cc(Cl)cc1Cl)C1COc2ncccc21 (racemic) [Example 114, rac-2,3-Dihydro-furo[2,3-b]pyridine-3-carboxylic acid 2,4,6-trichloro-benzylamide] was run?
Answer: Its IC50 is 12.5 nM.

Question: With Cc1cc(Cl)cc(Cl)c1CNC(=O)C1COc2c1ccc[n+]2[O-] (racemic) [Example 115, rac-7-Oxy-2,3-dihydro-furo[2,3-b]pyridine-3-carboxylic acid 2,4-dichloro-6-methyl-benzylamide] as the compound, how does the IC50 (read-out: IC50 [nM], antagonistic activities with respect to the P2X7 receptor) read?
Answer: The IC50 was 35.4 nM.

Question: O=C(NCc1c(Cl)cccc1CO)C1COc2ncccc21 (racemic) [Example 118, rac-2,3-Dihydro-furo[2,3-b]pyridine-3-carboxylic acid 2-chloro-6-hydroxymethyl-benzylamide] was tested. Which IC50 did it give?
Answer: The IC50 was 304 nM.

Question: How did the IC50 [1] turn out when O=C(N[C@H](CO)C1CCCCC1)C1COc2ncccc21 (single isomer, unassigned) [Example 1] was run?
Answer: Its IC50 is 1070 nM.

Question: How did the IC50 [1] turn out when O=C(N[C@H](CO)C1CCCCC1)C1COc2ncccc21 (single isomer, unassigned) [Example 2] was run?
Answer: Its IC50 is 106 nM.

Question: Cc1cc(Cl)cc(Cl)c1CNC(=O)C1COc2ncccc21 (single isomer, unassigned) [Example 3, 2,3-Dihydro-furo[2,3-b]pyridine-3-carboxylic acid 2,4-dichloro-6-methyl-benzylamide] was tested. Which IC50 [1] did it give?
Answer: Its IC50 is 18.3 nM.

Question: For Cc1cc(Cl)cc(Cl)c1CNC(=O)C1COc2ncccc21 (single isomer, unassigned) [Example 4, 2,3-Dihydro-furo[2,3-b]pyridine-3-carboxylic acid 2,4-dichloro-6-methyl-benzylamide], which IC50 [1] is on record?
Answer: The IC50 was 2.9 nM.

Question: For O=C(N[C@H](CO)c1ccc(Cl)cc1Cl)C1COc2ncccc21 (single isomer, unassigned) [Example 6], which IC50 [1] is on record?
Answer: The IC50 was 621 nM.

Question: For O=C(N[C@H](CO)c1ccc(Cl)cc1Cl)C1COc2ncccc21 (single isomer, unassigned) [Example 7], which IC50 [1] is on record?
Answer: Its IC50 is 117 nM.
